# Columns and labels:
# [1] = Parallel artificial membrane permeability assay (PAMPA); type: in vitro ADME; conditions: 200 μM initial concentration, pH 7.4, 4 hours, room temperature
# Method: Parallel artificial membrane permeability assay (PAMPA) described in Kansy M et al., J. Med. Chem. 1998; 41(7):1007-10 was used to determine the capacity of compounds to cross the Blood-Brain Barrier (BBB) by passive diffusion (Di L et al., Eur. J. Med. Chem. 2003; 38(3):223-32). The effective permeability (Pe) of the compounds was measured at an initial concentration of 200 μM. The buffer solution was prepared from a commercial concentrated one following the manufacturer's instructions. pH was adjusted to 7.4 using a 0.5 M NaOH solution. A stock solution of new compound was prepared in DMSO and diluted with buffer solution to a final 200 μM concentration (0.5% DMSO content). The PAMPA sandwich was separated and each donor well was filled with 200 μL of the compound solution. The acceptor plate was placed into the donor plate, ensuring that the underside of the membrane was in contact with buffer. 4 μL of the mixture of phospholipids (20 mg/mL) in dodecane was added to the filter of each well, and 200 μL of buffer solution was added to the each acceptor well. The plate was covered and incubated at room temperature in a saturated humidity atmosphere for 4 hours under orbital agitation at 100 rpm. After 4 hours, the contents of the acceptor and donor compartments were analyzed by HPLC: 150 μL of each well from the donor plate and 150 μL of each well from the acceptor plate were transferred to HPLC vials, injecting each sample into a reverse-phase C18 column (150 mm×4.6 mm×5 μm, 100 Å) (100 μL/injection from the acceptor wells, 10 μL/injection from the donor wells and for t0 references). Transport was also confirmed by MALDI-TOF spectrometry.
# The phospholipid mixture used was a porcine polar brain lipid extract, provided by Avanti polar lipids, with the following composition: 12.6% phosphatidylcholine (PC), 33.1% phosphatidylethanolamine (PE), 18.5% phosphatidylserine (PS), 4.1% phosphatidylinositol (PI), 0.8% phosphatidic acid and 30.9% of other compounds.
# The effective permeability (Pe) after 4 hours was calculated using equation 2 and the percentage of transport was calculated using equation 3:
# [formula] wherein: t is time (h) CA(t) is the compound concentration in the acceptor well at time t and CD(to) is the compound concentration in the donor well at to.
# [2] = tested on: MK-801-treated rodents; test: Passive avoidance task in MK-801 cognition impairment model; type: in vivo, rodents (mice or rats); conditions: 5 mg/Kg s.c. 35 min before shock session; MK-801 0.2 mg/kg i.p.; FIG. 2
# Method: The new compounds were evaluated for their efficacy as cognition enhancers in a pharmacological model for cognitive impairment. The effects of the new compounds were evaluated in untreated and MK-801-treated rodents (mice or rats). MK-801 is a non-competitive antagonist of the N-Methyl-D-aspartate (NMDA) receptor which impairs animal performance in various learning and memory paradigms (Castellano C et al., Curr. Drug Targets 2001; 2:273-83; Riedel G et al., Behav. Brain Res. 2003; 140:1-47). MK-801 also produces various effects on rodent behavior, including deficits in sensory processing, hypermotility, stereotypy and ataxia. […]
# For the evaluation of the passive avoidance task, a two-compartment box with a light compartment and a dark compartment of the same dimensions was used. […] In the evaluation session, the time which the animal takes to enter the dark compartment (in seconds) was measured, as a sign of memory retention of the shock received in the dark compartment during the previous session. […] The corresponding evaluated compound was injected s.c. 35 min before the shock session, followed 15 minutes later by i.p. injection of MK-801, or PBS in the case of the control, in the same doses and volume as described for the object recognition test.
compound,measurement,setting,value
"COc1cc(C(=O)N2CC(F)(F)C[C@H]2C(=O)N2CCC[C@H]2C#N)cc(OC)c1OCc1ccccc1 [Example 4, (S)-1-((2S)-1-(4-(benzyloxy)-3,5-dimethoxybenzoyl)-4,4-difluoropyrrolidine-2-carbonyl)pyrrolidine-2-carbonitrile]",% T (percentage of transport),[1],29.92%
same,"Papp at 4 h, 200 μM","[1]; PAMPA, read-out: Effective permeability Pe",22.1 ×10⁻⁶ cm/s
same,Reversal of MK-801-induced memory impairment in the passive avoidance test (latency to enter dark compartment),[2],able to reverse MK-801-induced memory impairment
